Measured values from US20050148523A1, “Method of treating HIV infection in atazanavir-resistant patients using a combination of atazanavir and another protease inhibitor” (priority 2003, published 2005).
Where two headings read alike, the source gives them in different places.

Experiments:
[1] = system: HIV-1 in treatment naive patients; test: Clinical study AI424-008/044, virological outcomes and resistance; type: in vivo, human; conditions: study 008/044
Excerpt: (§1) Study Population. Viral samples (baseline and on-treatment, where available) were obtained from patients who experienced virologic failure while enrolled in studies AI424-007/041 [12] (ATV+d4T and ddI), AI424-008/044 [13, 14] (ATV+d4T and 3TC) and AI424-034 [9] (ATV or EFV in combination with ZDV and 3TC). […] In general, virologic failure specimens were selected for further resistance evaluation only if they contained >1,000 copies/mL HIV-1 RNA and there was no indication that the specimen came from a patient at a time of transient non-adherence to study drug(s). […] For non-responders, samples from week 16 (or 24) were tested. Drug adherence was determined from pill counts of returned study medications at each scheduled visit.
(§2) ATV resistance was defined as ≧2-fold decrease in ATV susceptibility from baseline, a Fold Change (FC) of ≧2.5 (relative to the Nl4-3 reference strain), or evidence of an isoleucine (Ile) to leucine (Leu) change at amino acid residue 50 (I50L). Resistance levels for NFV and EFV were also defined as a FC reaching 2.5.

[2] = system: clinical isolates exhibiting a wide array of PI resistance profiles; conditions: cited from earlier work
[3] = system: HIV-1 in treatment naive patients; test: Clinical study AI424-034, virological outcomes and resistance; type: in vivo, human; conditions: study 034
Excerpt: as §1, §2

[4] = system: HIV-1 in treatment naive patients; test: Clinical study AI424-007/041, virological outcomes and resistance; type: in vivo, human; conditions: study 007/041
Excerpt: as §1, §2

NL4-3 reference strain = test: PhenoSense phenotypic drug susceptibility assay, reference strain; type: cell-based, HIV-1; conditions: Human immunodeficiency virus 1, NL43; over the several months of sample testing; read-out: IC50 measured for the NL4-3 reference strain
Protocol: Drug Susceptibility Assays. Clinical isolates were subjected to phenotypic (PhenoSense™) and genotypic (GeneSeq™) analysis by Virologic, Inc. as described elsewhere. Over the time period (several months) in which the samples reported here were tested, the ATV IC50 measured for the NL4-3 reference strain ranged from 0.9-2.0 nM. The success rate in obtaining phenotype and genotype results from patients experiencing virologic failure ranged from 30 to 50%, largely because of low HIV RNA levels (the assays used required levels of >=500 c/mL), insufficient sample volume, or no sample was available.

[5] = system: HIV-1 in treatment naive patients on ATV containing regimens; test: Pooled resistance analysis of studies AI424-007/041, 008/044 and 034; type: in vivo, human; conditions: patients with I50L, N=10
Excerpt: as §1, §2

HIV-1 protease = HIV-1 protease (Human immunodeficiency virus type 1 group M subtype B, UniProt P04585); conditions: cited from earlier work
[6] = system: clinical isolates containing an I50L substitution (and their baseline isolates); test: PhenoSense phenotypic susceptibility of clinical isolates from ATV-treated patients who developed I50L; type: cell-based, HIV-1
Excerpt: as §1
(§3) Drug Susceptibility Assays. Clinical isolates were subjected to phenotypic (PhenoSense™) and genotypic (GeneSeq™) analysis by Virologic, Inc. as described elsewhere.

[7] = system: clinical isolates containing an I50V; test: PhenoSense phenotypic susceptibility of clinical isolates containing I50V; type: cell-based, HIV-1
Excerpt: as §3
Because an I50V substitution is a signature mutation sometimes associated with APV resistance, the cross-resistance relationship between ATV and APV was further examined.

[8] = system: clinical isolates containing a D30N substitution; test: PhenoSense phenotypic susceptibility of clinical isolates containing D30N; type: cell-based, HIV-1; conditions: 75 D30N containing isolates, FIG. 3
Protocol: as §3
Comparative Studies of I50L and D30N Containing Viruses. […] Comparative studies were performed on the 18 phenotyped viruses containing an I50L and 75 clinical isolates containing a D30N substitution without evidence of cross-resistance (FC≧2.5) to other PIs.

SMILES: COC(=O)N[C@H](C(=O)N[C@@H](Cc1ccccc1)[C@@H](O)CN(Cc1ccc(-c2ccccn2)cc1)NC(=O)[C@@H](NC(=O)OC)C(C)(C)C)C(C)(C)C [ATV, atazanavir]
- Virologic Failures (%) [1]: 24%
- Virologic Failures, number [1]: 88
- percentage of isolates remaining susceptible to ATV ([2]; isolates resistant to 1 PI): 88%
- percentage of isolates remaining susceptible to ATV ([2]; isolates resistant to 2 PIs): 81%
- percentage of isolates remaining susceptible to ATV ([2]; isolates resistant to 3 PIs): 34%
- percentage of isolates remaining susceptible to ATV ([2]; isolates resistant to 4 PIs): 16%
- percentage of isolates remaining susceptible to ATV ([2]; isolates resistant to 5 PIs): 5%
- Virologic Failures (%) [3]: 17%
- Virologic Failures, number [3]: 69
- Virologic Failures (%) [4]: 21%
- Virologic Failures, number [4]: 51
- IC50 (NL4-3 reference strain): 0.9 to 2 nM
- mean time to virologic failure [5]: 50 weeks
- Ki (HIV-1 protease): < 1 nM
- median FC ([6]; I50L isolates, relative to NL4-3 reference strain): 9.6 fold
- Susceptibility, Fold Change in EC50 relative to reference strain ([6]; Isolate with I50L 1): 3.5 Fold Change
- Susceptibility, Fold Change in EC50 relative to reference strain ([6]; Isolate with I50L 2): 4.9 Fold Change
- Susceptibility, Fold Change in EC50 relative to reference strain ([6]; Isolate with I50L 3): 5.2 Fold Change
- Susceptibility, Fold Change in EC50 relative to reference strain ([6]; Isolate with I50L 4): 5.8 Fold Change
- Susceptibility, Fold Change in EC50 relative to reference strain ([6]; Isolate with I50L 5): 6.7 Fold Change
- Susceptibility, Fold Change in EC50 relative to reference strain ([6]; Isolate with I50L 6): 7.9 Fold Change
- Susceptibility, Fold Change in EC50 relative to reference strain ([6]; Isolate with I50L 7): 8.6 Fold Change
- Susceptibility, Fold Change in EC50 relative to reference strain ([6]; Isolate with I50L 8): 8.8 Fold Change
- Susceptibility, Fold Change in EC50 relative to reference strain ([6]; Isolate with I50L 9): 9.5 Fold Change
- Susceptibility, Fold Change in EC50 relative to reference strain ([6]; Isolate with I50L 10): 10 Fold Change
- Susceptibility, Fold Change in EC50 relative to reference strain ([6]; Isolate with I50L 11): 11 Fold Change
- Susceptibility, Fold Change in EC50 relative to reference strain ([6]; Isolate with I50L 12): 12 Fold Change
- Susceptibility, Fold Change in EC50 relative to reference strain ([6]; Isolate with I50L 13): 13 Fold Change
- Susceptibility, Fold Change in EC50 relative to reference strain ([6]; Isolate with I50L 14): 19 Fold Change
- Susceptibility, Fold Change in EC50 relative to reference strain ([6]; Isolate with I50L 15): 22 Fold Change
- Susceptibility, Fold Change in EC50 relative to reference strain ([6]; Isolate with I50L 16): 29 Fold Change
- Susceptibility, Fold Change in EC50 relative to reference strain ([6]; Subject 076, Week 80): 9.5 Fold Change
- Susceptibility, Fold Change in EC50 relative to reference strain ([6]; Subject 076, Week 92): 16 Fold Change
- Susceptibility, Fold Change in EC50 relative to reference strain ([6]; Subject 100, Week 1.7): 1.5 Fold Change
- Susceptibility, Fold Change in EC50 relative to reference strain ([6]; Subject 169, Week 0.1): 1.1 Fold Change
- Susceptibility, Fold Change in EC50 relative to reference strain ([6]; Subject 169, Week 90): 12 Fold Change
- Susceptibility, Fold Change in EC50 relative to reference strain ([6]; Subject 169, Week 102): 9.2 Fold Change
- Subceptibility, Fold Change in EC50 relative to reference strain ([6]; Subject 169, Week 114): 13 Fold Change
- Susceptibility, Fold Change in EC50 relative to reference strain ([6]; Subject 362, Week 0.1): 1.3 Fold Change
- Susceptibility, Fold Change in EC50 relative to reference strain ([6]; Subject 362, Week 108): 12 Fold Change
- median decrease in susceptibility from baseline ([6]; on emergence of I50L, n=15): 9.6 fold
- FC ([6]; same isolate prior to developing the I50L change): 0.2
- FC ([6]; the one I50L isolate with lowest FC, on treatment): 1.5
- FC ([6]; three on treatment isolates containing I50I/L mixtures): below 1
- median FC ([6]; viruses containing the I50L substitution, FIG. 3): selective resistance
- number of the eight isolates with FC less than 1.0 ([7]; 8 I50V isolates resistant to APV): Seven
- Susceptibility, Fold Change in EC50 relative to reference strain ([7]; Isolate with I50V 1): 0.3 Fold Change
- Susceptibility, Fold Change in EC50 relative to reference strain ([7]; Isolate with I50V 2): 0.4 Fold Change
- Susceptibility, Fold Change in EC50 relative to reference strain ([7]; Isolate with I50V 3): 0.6 Fold Change
- Susceptibility, Fold Change in EC50 relative to reference strain ([7]; Isolate with I50V 4): 1.2 Fold Change
- Susceptibility, Fold Change in EC50 relative to reference strain ([7]; Isolate with I50V 5): 0.4 Fold Change
- Susceptibility, Fold Change in EC50 relative to reference strain ([7]; Isolate with I50V 6): 0.8 Fold Change
- Susceptibility, Fold Change in EC50 relative to reference strain ([7]; Isolate with I50V 7): 0.5 Fold Change
- Susceptibility, Fold Change in EC50 relative to reference strain ([7]; Isolate with I50V 8): 0.5 Fold Change
- number of the eight isolates with FC of 0.4 or less ([7]; {}): 3
- median FC [8]: small median decreases in susceptibility
